Test results: patent publication US9005575B2, “Arg-Gly-Asp-conjugated alpha-melanocyte stimulating hormone hybrid peptide for use in diagnosing and treating melanoma, including metastatic melanoma and methods related to same” (STC.UNM, priority 2009, dated 2015)
pIC50: −log10 of the molar value. Where two headings read alike, the source gives them in different places. Positions of bridges follow the written chain, without caps; N, C: chain ends. Non-standard residues stand in square brackets, D forms with d. Residues, ends and D or L forms follow the SMILES beside them.

Columns and labels:
MC1 receptor [1] = biological target: T1, MC1 receptor (Mus musculus, UniProt Q01727); test: In vitro competitive binding assay in B16/F1 melanoma cells; design: species or system murine; settings: competition with ^125I-(Tyr^2)-NDP-MSH, 25° C., 2 h, read-out: IC50 value (MC1 receptor binding affinity)
T1 construct: host or cells: B16/F1 murine melanoma cells
Protocol: The IC50 value of RGD-Lys-(Arg^11)CCMSH was determined according to our previously published procedure (27). B16/F1 cells were harvested and seeded into a 24-well cell culture plate (5×10^5/well) and incubated at 37° C. overnight. After being washed with binding media (MEM with 25 mM HEPES, pH 7.4, 0.2% BSA, 0.3 mM 1,10-phenathroline), the cells were incubated at room temperature (25° C.) for 2 h with approximately 40,000 counts per minute (cpm) of ^125I-(Tyr^2)-NDP-MSH in the presence of increasing concentrations (10^−12 to 10^−5 M) of RGD-Lys-(Arg^11)CCMSH in 0.3 ml of binding media. The reaction media were aspirated after the incubation. […] The activities associated with cells were measured in a Wallac 1480 automated gamma counter (PerkinElmer, NJ). The IC50 value for the peptide was calculated by fitting the data with nonlinear regression using Prism software (GraphPad Software, La Jolla, Calif.).
The IC50 value of RGD-Arg-(Arg^11)CCMSH was determined according to our previously published procedure (17). […] The activities associated with cells were measured in a Wallac 1480 automated gamma counter (PerkinElmer, NJ). The IC50 value for the peptide was calculated using Prism software (GraphPad Software, La Jolla, Calif.).

[2] = tested on: B16/F1 murine melanoma cells; test: Specificity of cellular uptake (peptide blockade); format: cell-based; settings: 0.1 μM of blocking peptide, 25° C., 120 min
Protocol: The specificity of cell binding was determined by incubating ^99mTc-RGD-Lys-(Arg^11)CCMSH with or without non-radioactive peptides. After being washed once with binding media, B16/F1 cells in 24-well cell culture plates were incubated with approximately 200,000 cpm of HPLC purified ^99mTc-RGD-Lys-(Arg^11)CCMSH at 25° C. for 120 min (n=4) in the presence of 0.1 μM of RGD-Lys-(Arg^11)CCMSH, NDP-MSH, (Arg^11)CCMSH or RGD in 0.5 ml of binding media, respectively. The reaction media were aspirated after the incubation. The cells were rinsed twice with 0.5 ml of ice-cold pH 7.4, 0.2% BSA/0.01 M PBS and lysed in 0.5 ml of 1 N NaOH for 5 min. The activities associated with cells were measured in a gamma counter. Statistical analysis was performed using the Student's t-test for unpaired data.
The specificity of cellular uptake was determined by incubating ^99mTc-RGD-Arg-(Arg^11)CCMSH with or without non-radioactive peptides. After being washed once with binding medium, B16/F1 cells in 24-well cell culture plates were incubated with approximately 200,000 cpm of HPLC purified ^99mTc-RGD-Arg-(Arg^11)CCMSH at 25° C. for 120 min (n=3) in the presence of 0.1 μM of RGD-Arg-(Arg^11)CCMSH, (Arg^11)CCMSH, RGD or no peptide blockade in 0.5 mL of binding medium, respectively. The reaction medium was aspirated after the incubation. The cells were rinsed twice with 0.5 mL of ice-cold pH 7.4, 0.2% BSA/0.01 M PBS and lysed in 0.5 mL of 1 N NaOH for 5 min. The activities associated with cells were measured in a gamma counter.

B16/F1 melanoma cells = test: Clonogenic cytotoxicity; format: cell-based, murine; settings: 6 days post the treatment; for Decrease in clonogenic survival compared to untreated group: 0.1 μM (100 nM), 3 h incubation
Protocol: To determine whether the replacement of the Lys linker with Arg linker affected the clonogenic cytotoxicity of the hybrid peptide, we examined the clonogenic cytotoxic effect of RGD-Arg-(Arg^11)CCMSH in B16/F1 melanoma cells according to our published procedure (17). The B16/F1 cells were seeded in a 6-well plate (200 cells/well) and incubated at 37° C. overnight. […] Control cells were only incubated in the culture medium. After the incubation, the cells were washed with PBS twice and allowed to form colonies over 6 days in the culture medium. The medium was changed every other day. After 6 days, the cells were fixed with methanol:glacial acetic acid (3:1), stained with hematoxylin and visually examined under microscope for survival. Colonies contained more than 50 cells were scored as survivors.

MC1 receptor [3] = biological target: T1, MC1 receptor; settings: literature value (ref. 8); read-out: MC1 receptor binding affinity; cited from earlier work

T1 sequence (Q01727 whole entry): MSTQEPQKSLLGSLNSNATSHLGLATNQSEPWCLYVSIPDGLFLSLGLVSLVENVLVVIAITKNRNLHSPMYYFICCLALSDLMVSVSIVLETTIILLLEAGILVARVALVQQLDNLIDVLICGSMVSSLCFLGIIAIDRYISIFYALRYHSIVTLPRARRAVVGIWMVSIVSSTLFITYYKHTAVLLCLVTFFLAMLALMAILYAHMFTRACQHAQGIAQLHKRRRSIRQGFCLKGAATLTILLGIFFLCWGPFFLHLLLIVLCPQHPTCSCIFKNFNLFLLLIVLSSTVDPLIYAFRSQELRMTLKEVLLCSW

| pIC50 (MC1 receptor [1]) | Molecule | Decrease of cellular uptake of ^99mTc-RGD-Arg-(Arg^11)CCMSH by peptide blockade [2] | Decrease in clonogenic survival compared to untreated group (B16/F1 melanoma cells) | Decrease of clonogenic survival compared to untreated control (B16/F1 melanoma cells; 93 μmol, single treatment (3 h incubation), unpublished preliminary studies) | Decrease of cellular uptake of ^99mTc-RGD-Lys-(Arg^11)CCMSH by peptide blockade [2] | pIC50 (MC1 receptor [3]) |
| --- | --- | --- | --- | --- | --- | --- |
| 9.15 | CC(C)[C@H](NC(=O)[C@@H]1CCCN1C(=O)[C@H](CCCNC(=N)N)NC(=O)[C@H](CS)NC(=O)[C@H](Cc1c[nH]c2ccccc12)NC(=O)[C@H](CCCNC(=N)N)NC(=O)[C@@H](Cc1ccccc1)NC(=O)[C@H](Cc1c[nH]cn1)NC(=O)[C@H](CCC(=O)O)NC(=O)[C@H](CS)NC(=O)[C@H](CS)NC(=O)[C@H](CCCNC(=N)N)NC(=O)[C@@H]1CC(=O)N[C@@H](CCCNC(=N)N)C(=O)NCC(=O)N[C@@H](CC(=O)O)C(=O)N[C@H](Cc2ccc(O)cc2)C(=O)N1)C(N)=O [RGD-Arg-(Arg^11)CCMSH] (RGD[dY]DRCCEH[dF]RWCRPV-NH2; lactam N-5; C-terminus assumed) | 76% | 62% | – | – | – |
| – | CC(C)[C@H](NC(=O)[C@@H]1CCCN1C(=O)[C@H](CCCNC(=N)N)NC(=O)[C@H](CS)NC(=O)[C@H](Cc1c[nH]c2ccccc12)NC(=O)[C@H](CCCNC(=N)N)NC(=O)[C@@H](Cc1ccccc1)NC(=O)[C@H](Cc1c[nH]cn1)NC(=O)[C@H](CCC(=O)O)NC(=O)[C@H](CS)NC(=O)[C@H](CS)NC(=O)[C@H](CCCCN)NC(=O)[C@@H]1CC(=O)N[C@@H](CCCNC(=N)N)C(=O)NCC(=O)N[C@@H](CC(=O)O)C(=O)N[C@H](Cc2ccc(O)cc2)C(=O)N1)C(N)=O [RGD-Lys-(Arg^11)CCMSH] (RGD[dY]DKCCEH[dF]RWCRPV-NH2; lactam N-5; C-terminus assumed) | – | – | 65% | – | – |
| – | Cyclo(Arg-Gly-Asp-DPhe-Val) [RGD, reference compound] | didn't reduce | 7% | – | didn't reduce | – |
| – | [Cys^3,4,10, D-Phe^7, Arg^11]α-MSH3-13 [(Arg^11)CCMSH, reference compound] | 78% | 11% | – | – | 8.77 |
